Measurements taken from PubChem BioAssay (NCI).
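Interpolation was linear, between the two tested concentrations surrounding the appropriate level; five concentrations were tested over 48 hours in 96-well plates. At the TGI there is no net growth.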

How the values were obtained:
Test in all cases: growth of human tumour cells (NCI), 48 h
[1] = tested on: A549 NSCLC
[2] = tested on: SK-MEL-28 melanoma
[3] = tested on: RPMI-8226 leukemia
[4] = tested on: NCI-H460 lung
[5] = tested on: PC-3 prostate
[6] = tested on: SN12C renal
[7] = tested on: HOP-62 NSCLC
[8] = tested on: RXF 393 renal
[9] = tested on: SK-MEL-5 melanoma
[10] = tested on: A498 renal
[11] = tested on: MOLT-4 leukemia
[12] = tested on: SF-295 CNS
[13] = tested on: T-47D breast
[14] = tested on: MDA-N
[15] = tested on: EKVX NSCLC
[16] = tested on: DU-145 prostate
[17] = tested on: HOP-92 NSCLC
[18] = tested on: SW-620 colon
[19] = tested on: OVCAR-5 ovarian
[20] = tested on: SK-OV-3 ovarian
[21] = tested on: ACHN renal
[22] = tested on: IGROV1 ovarian
[23] = tested on: HCT-116 colon
[24] = tested on: NCI-H522 lung
[25] = tested on: BT-549 breast
[26] = tested on: HCC-2998 colon
[27] = tested on: MDA-MB-231 breast
[28] = tested on: HCT-15 colon
[29] = tested on: OVCAR-4 ovarian
[30] = tested on: COLO 205 colon
[31] = tested on: TK-10 renal
[32] = tested on: HS 578T breast
[33] = tested on: NCI-H23 lung
[34] = tested on: HL-60(TB) leukemia
[35] = tested on: SF-539 CNS
[36] = tested on: SK-MEL-2 melanoma
[37] = tested on: CCRF-CEM leukemia
[38] = tested on: CAKI-1 renal
[39] = tested on: MCF7 breast
[40] = tested on: SNB-19 CNS
[41] = tested on: MDA-MB-435
[42] = tested on: KM12 colon
[43] = tested on: SF-268 CNS
[44] = tested on: LOX IMVI melanoma
[45] = tested on: M14 melanoma
[46] = tested on: 786-0 renal
[47] = tested on: U251 CNS
[48] = tested on: NCI/ADR-RES ovarian
[49] = tested on: MALME-3M melanoma
[50] = tested on: NCI-H226 lung
[51] = tested on: SNB-75 CNS
[52] = tested on: OVCAR-8 ovarian
[53] = tested on: K-562 leukemia
[54] = tested on: UACC-62 melanoma
[55] = tested on: UACC-257 melanoma
[56] = tested on: HT29 colon
[57] = tested on: OVCAR-3 ovarian
[58] = tested on: UO-31 renal

CO[C@H]1C[C@H](O[C@H]2CC[C@]3(C=O)[C@H]4CC[C@]5(C)[C@@H](C6=CC(=O)OC6)CC[C@]5(O)[C@@H]4CC[C@]3(O)C2)O[C@H](C)[C@H]1O[C@@H]1O[C@H](CO)[C@@H](O)[C@H](O)[C@H]1O
TGI [1]: 0.00983 nM
TGI [2]: 0.145 nM
TGI [3]: 0.1 nM
TGI [4]: 0.0771 nM
TGI [5]: 0.955 nM
TGI [6]: 0.0364 nM
TGI [7]: 0.0425 nM
TGI [8]: 0.154 nM
TGI [9]: 0.0972 nM
TGI [10]: 0.198 nM
TGI [11]: 0.0132 nM
TGI [12]: 0.289 nM
TGI [13]: 0.185 nM
TGI [14]: 0.074 nM
TGI [15]: 0.0203 nM
TGI [16]: 0.0166 nM
TGI [17]: 0.141 nM
TGI [18]: 0.0747 nM
TGI [19]: 0.0697 nM
TGI [20]: 0.153 nM
TGI [21]: 0.135 nM
TGI [22]: 139 nM
TGI [23]: 0.035 nM
TGI [24]: 0.0405 nM
TGI [25]: 0.0472 nM
TGI [26]: 27.1 nM
TGI [27]: 2.5 nM
TGI [28]: 0.0831 nM
TGI [29]: 0.0307 nM
TGI [30]: 0.867 nM
TGI [31]: 0.395 nM
TGI [32]: > 100000 nM
TGI [33]: 0.0288 nM
TGI [34]: 11 nM
TGI [35]: 0.0585 nM
TGI [36]: 0.435 nM
TGI [37]: 25 nM

CN(C)CCCNC(=O)CCNC(=O)c1cc(NC(=O)c2cc(NC(=O)c3cc(NC(=O)c4nccn4C)cn3C)cn2C)cn1C
TGI [1]: > 100000 nM
TGI [38]: > 100000 nM
TGI [2]: > 100000 nM
TGI [39]: > 100000 nM
TGI [40]: > 100000 nM
TGI [3]: > 100000 nM
TGI [4]: > 100000 nM
TGI [41]: > 100000 nM
TGI [42]: > 100000 nM
TGI [5]: > 100000 nM
TGI [6]: > 100000 nM
TGI [7]: > 100000 nM
TGI [8]: > 100000 nM
TGI [9]: > 100000 nM
TGI [43]: > 100000 nM
TGI [44]: > 100000 nM
TGI [10]: > 100000 nM
TGI [11]: > 100000 nM
TGI [12]: > 100000 nM
TGI [45]: > 100000 nM
TGI [46]: > 100000 nM
TGI [13]: 97400 nM
TGI [47]: > 100000 nM
TGI [14]: > 100000 nM
TGI [15]: > 100000 nM
TGI [16]: > 100000 nM
TGI [17]: > 100000 nM
TGI [18]: > 100000 nM
TGI [19]: > 100000 nM
TGI [20]: > 100000 nM
TGI [48]: > 100000 nM
TGI [49]: > 100000 nM
TGI [50]: > 100000 nM
TGI [21]: > 100000 nM
TGI [22]: > 100000 nM
TGI [23]: > 100000 nM
TGI [24]: 97000 nM
TGI [51]: > 100000 nM
TGI [52]: > 100000 nM
TGI [25]: > 100000 nM
TGI [53]: > 100000 nM
TGI [26]: > 100000 nM
TGI [27]: > 100000 nM
TGI [28]: > 100000 nM
TGI [29]: > 20300 nM
TGI [30]: > 100000 nM
TGI [31]: > 100000 nM
TGI [32]: > 100000 nM
TGI [54]: > 100000 nM
TGI [33]: > 100000 nM
TGI [55]: > 100000 nM
TGI [34]: > 100000 nM
TGI [35]: > 100000 nM
TGI [56]: > 100000 nM
TGI [36]: > 100000 nM
TGI [57]: > 100000 nM
TGI [58]: > 100000 nM
TGI [37]: > 100000 nM
